Source: ChEMBL document CHEMBL5335853, “Acremosides A-G, Sugar Alcohol-Conjugated Acyclic Sesquiterpenes from a Sponge-Derived Acremonium Species” (J Nat Prod, 2024)

Tests used:
Bacillus subtilis = experiment: Antimicrobial activity against Bacillus subtilis ATCC 6633 assessed as inhibition of microbial growth by CLSI protocol based two-fold serial broth microdilution method; assay type: functional
Pseudomonas aeruginosa = experiment: Antimicrobial activity against Pseudomonas aeruginosa ATCC 27853 assessed as inhibition of microbial growth by CLSI protocol based two-fold serial broth microdilution method; assay type: functional
[1] = tested on: Staphylococcus epidermidis; experiment: Antimicrobial activity against Staphylococcus epidermidis ATCC 12228 assessed as inhibition of microbial growth by CLSI protocol based two-fold serial broth microdilution method; assay type: functional
Edwardsiella ictaluri = experiment: Antimicrobial activity against Edwardsiella ictaluri ATCC 33202 assessed as inhibition of microbial growth by CLSI protocol based two-fold serial broth microdilution method; assay type: functional
Staphylococcus aureus = experiment: Antimicrobial activity against Staphylococcus aureus ATCC 29213 assessed as inhibition of microbial growth by CLSI protocol based two-fold serial broth microdilution method; assay type: functional
[2] = Selectivity index, ratio of CC50 for cytotoxicity against human Huh7.5 cells to EC50 for antiviral activity against HCV infected in human Huh7.5 cells; assay type: toxicity, cell-based; conditions: read-out: Ratio CC50/EC50
Hepatitis C virus = experiment: Antiviral activity against HCV infected in human Huh-7.5 cells assessed as inhibition of viral replication incubated for 72 hrs by qRT-PCR analysis; assay type: functional, organism-based, Hepacivirus hominis; conditions: Huh7.5, 72 h
Klebsiella pneumoniae = experiment: Antimicrobial activity against Klebsiella pneumoniae ATCC 700603 assessed as inhibition of microbial growth by CLSI protocol based two-fold serial broth microdilution method; assay type: functional
Edwardsiella tarda = experiment: Antimicrobial activity against Edwardsiella tarda ATCC 15947 assessed as inhibition of microbial growth by CLSI protocol based two-fold serial broth microdilution method; assay type: functional
[3] = Cytotoxicity against human Huh7.5 cells assessed as reduction in cell viability by CCK-8 assay; assay type: toxicity, cell-based, Huh-7.5
Escherichia coli = experiment: Antimicrobial activity against Escherichia coli ATCC 25922 assessed as inhibition of microbial growth by CLSI protocol based two-fold serial broth microdilution method; assay type: functional

Row | Compound | MIC (Bacillus subtilis) [µg/mL] | MIC (Pseudomonas aeruginosa) [µg/mL] | MIC [1] [µg/mL] | MIC (Edwardsiella ictaluri) [µg/mL] | MIC (Staphylococcus aureus) [µg/mL] | selectivity ratio [2] | EC50 (Hepatitis C virus) [µM] | MIC (Klebsiella pneumoniae) [µg/mL] | MIC (Edwardsiella tarda) [µg/mL] | CC50 [3] [µM] | MIC (Escherichia coli) [µg/mL]
1 | CC(C)=C[C@@H]1C[C@](C)(O)[C@@H](C[C@@H](OC(=O)Cc2ccccc2)/C(C)=C/CO[C@@H]([C@H](O)[C@H](O)CO)[C@H](O)CO)O1 | ≥ 128 | ≥ 128 | ≥ 128 | ≥ 128 | ≥ 128 | > 23 | 8.8 | ≥ 128 | ≥ 128 | > 200 | ≥ 128
2 | CC(C)=C[C@H]1C[C@](C)(O)[C@@H](C[C@@H](OC(=O)Cc2ccccc2)/C(C)=C/CO[C@@H]([C@H](O)[C@H](O)CO)[C@H](O)CO)O1 | ≥ 128 | ≥ 128 | ≥ 128 | ≥ 128 | ≥ 128 | > 12 | 16 | ≥ 128 | ≥ 128 | > 200 | ≥ 128
3 | COC[C@@H](O)[C@@H](OC/C=C(\C)[C@@H](C[C@@H](O)[C@@](C)(O)CCC=C(C)C)OC(=O)Cc1ccccc1)[C@H](O)[C@H](O)CO | ≥ 128 | ≥ 128 | ≥ 128 | ≥ 128 | ≥ 128 | > 4 | 14 | ≥ 128 | ≥ 128 | 55 | ≥ 128
4 | CC(C)=CCC[C@](C)(O)[C@H](O)C[C@@H](OC(=O)Cc1ccccc1)/C(C)=C/CO[C@@H]([C@H](O)[C@H](O)CO)[C@H](O)CO | ≥ 128 | ≥ 128 | ≥ 128 | ≥ 128 | ≥ 128 | > 42 | 4.8 | ≥ 128 | ≥ 128 | > 200 | ≥ 128
5 | COC[C@@H](O)[C@@H](OC/C=C(\C)[C@@H](C[C@H]1O[C@H](C=C(C)C)C[C@]1(C)O)OC(=O)Cc1ccccc1)[C@H](O)[C@H](O)CO | ≥ 128 | ≥ 128 | ≥ 128 | ≥ 128 | ≥ 128 | > 17 | 12 | ≥ 128 | ≥ 128 | > 200 | ≥ 128
6 | CC(C)=CCC[C@](C)(O)[C@H](O)C[C@@H](OC(=O)Cc1ccccc1)/C(C)=C/CO[C@@H]([C@H](O)[C@@H](C)O)[C@H](O)CO | ≥ 128 | ≥ 128 | ≥ 128 | ≥ 128 | ≥ 128 | > 25 | 7.9 | ≥ 128 | ≥ 128 | > 200 | ≥ 128
7 | CC(C)=CCC[C@](C)(O)[C@H](O)C[C@@H](OC(=O)Cc1ccccc1)/C(C)=C/COC([C@H](O)CO)[C@H](O)CO | ≥ 128 | ≥ 128 | ≥ 128 | ≥ 128 | ≥ 128 | > 31 | 6.5 | ≥ 128 | ≥ 128 | > 200 | ≥ 128
8 | CC(C)OC(=O)[C@H](C)N[P@](=O)(OC[C@H]1O[C@@H](n2ccc(=O)[nH]c2=O)[C@](C)(F)[C@@H]1O)Oc1ccccc1 [SOFOSBUVIR] | – | – | – | – | – | > 2220 | 0.09 | – | – | > 200 | –
